Assay results published in paper PMC9481570, “A small molecule antagonist of SMN disrupts the interaction between SMN and RNAP II” (Nature Communications, 2022).
Where two headings read alike, the source gives them in different places.

Columns and labels:
[1] = molecular target: T1, SMN_N132A (Homo sapiens, UniProt Q16637, N132A); experiment: ITC binding to SMN Tudor mutant N132A; details: Fig. 3d
T1 construct: cloned into pET28-MHL vector: SMN (aa 82–147); His (N, cleaved yes); made in house; host or cells: E. coli BL21 (DE3) Codon plus RIL
From the text: The coding DNA fragments of following Tudor domains were cloned into pET28-MHL vector: SMN (aa 82–147), UHRF1 (aa 126–285), SMNDC1 (aa 53–130), TDRD3 (aa 554–611), SND1 (aa 650–910), TDRD2 (aa 327–420), FXR1 (aa 2–132), PHF1 (aa 28–87), SGF29 (aa 115–293), JMJD2A (aa 897–1101), 53BP1 (aa 1483–1606), SETDB1 (aa 190–410), LBR (aa 1–67), ZGPAT (aa 120–271). The coding regions of chromodomain of CBX7 (aa 8–62), PWWP domain of DNMT3A (aa 275–417), WD40 repeats of WDR5 (aa 24–334) and CW domain of ZCWPW2 (aa 21–78) were also subcloned into pET28-MHL vector to generate N-terminally His-tagged fusion protein. The MBT repeats of L3MBTL1 (aa 200–522) and L3MBTL2 (aa 170–625) were subcloned into pET28GST-LIC vector to generate N-terminally GST-His-tagged fusion protein. All the plasmids were generated by ligase independent cloning (Vazyme Biotech, C112 or ABclonal Technology, RK21020). […] The molecular weight of all protein samples was measured by mass spectrometry.
For the ITC measurement, the concentrated proteins were diluted into 20 mM Tris-HCl, pH 7.5, 150 mM NaCl (ITC buffer); the lyophilized compounds were dissolved in the same buffer, and the pH value was adjusted by adding 2 M NaOH or 2 M HCl. […] Compound concentrations were calculated from the mass and the volume of the solvent. […]

[2] = molecular target: T2, SND1 (Homo sapiens, UniProt Q7KZF4); experiment: ITC binding to SND1
T2 construct: SND1 (aa 650–910); His (N, cleaved yes); made in house; host or cells: E. coli BL21 (DE3) Codon plus RIL
T2 sequence (Q7KZF4 650-910): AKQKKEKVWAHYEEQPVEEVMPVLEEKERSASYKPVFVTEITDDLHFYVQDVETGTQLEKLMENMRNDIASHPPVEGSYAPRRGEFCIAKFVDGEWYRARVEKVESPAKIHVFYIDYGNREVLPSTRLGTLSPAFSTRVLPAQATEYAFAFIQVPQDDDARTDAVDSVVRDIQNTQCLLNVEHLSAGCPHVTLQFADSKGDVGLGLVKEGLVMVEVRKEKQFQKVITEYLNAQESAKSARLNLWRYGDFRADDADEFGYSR
From the text: The coding DNA fragments of following Tudor domains were cloned into pET28-MHL vector: SMN (aa 82–147), UHRF1 (aa 126–285), SMNDC1 (aa 53–130), TDRD3 (aa 554–611), SND1 (aa 650–910), TDRD2 (aa 327–420), FXR1 (aa 2–132), PHF1 (aa 28–87), SGF29 (aa 115–293), JMJD2A (aa 897–1101), 53BP1 (aa 1483–1606), SETDB1 (aa 190–410), LBR (aa 1–67), ZGPAT (aa 120–271). The coding regions of chromodomain of CBX7 (aa 8–62), PWWP domain of DNMT3A (aa 275–417), WD40 repeats of WDR5 (aa 24–334) and CW domain of ZCWPW2 (aa 21–78) were also subcloned into pET28-MHL vector to generate N-terminally His-tagged fusion protein. The MBT repeats of L3MBTL1 (aa 200–522) and L3MBTL2 (aa 170–625) were subcloned into pET28GST-LIC vector to generate N-terminally GST-His-tagged fusion protein. All the plasmids were generated by ligase independent cloning (Vazyme Biotech, C112 or ABclonal Technology, RK21020). […] The proteins were further purified by Superdex75 or Superdex200 gel-filtration column (GE Healthcare) in a buffer containing 20 mM Tris-HCl, pH 7.5, 150 mM NaCl and 1 mM DTT. For crystallization experiments, purified proteins were concentrated to 18 mg/mL for SMN, 23 mg/mL for UHRF1 and 10 mg/mL for TDRD3 in the gel-filtration buffer. […] The molecular weight of all protein samples was measured by mass spectrometry.
For the ITC measurement, the concentrated proteins were diluted into 20 mM Tris-HCl, pH 7.5, 150 mM NaCl (ITC buffer); the lyophilized compounds were dissolved in the same buffer, and the pH value was adjusted by adding 2 M NaOH or 2 M HCl. […] Compound concentrations were calculated from the mass and the volume of the solvent. […] The protein with a concentration of 50–100 μM was placed in the cell chamber, and the compounds with a concentration of 0.5–2 mM in syringe was injected in 25, 20, or 20 successive injections with a spacing of 180, 150, or 120 s for VP-ITC, iTC-200, or Nano-ITC, respectively, as previously described[30]–[32]. iTC-200 or Nano-ITC data were consistent with those from the VP-ITC instrument, based on ITC results of SMN-compound 1 detected by using all the instruments. […]

T1 sequence (Q16637 82-147 N132A): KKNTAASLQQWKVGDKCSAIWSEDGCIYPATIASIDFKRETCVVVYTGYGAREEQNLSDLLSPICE

Compound: Cn1c2c(c(=N)c3c1CCC3)CCC2 [Compound 1, 4-methyl-2,3,4,5,6,7-hexahydrodicyclopenta[b,e]pyridin-8(1H)-imine]
- Kd [1]: 70 ± 6 µM
- Kd ([2]; ITC, Fig. 1c, read-out: Kd (SND1)): > 100 µM
- Kd ([2]; Supplementary Fig. 11c, VP-ITC, read-out: Kd, ITC binding curve, SND1): 244 ± 51 µM
- ITC binding curve, SND1 (in words) ([2]; Supplementary Fig. 2d): Weak binding
